ChEMBL document CHEMBL1201861, “Genomics of Drug Sensitity in Cancer screening data, Wellcome Trust Sanger Institute”

Legend:
Ca9-22 = assay: cells; type: functional, cell-based, Homo sapiens; details: Homo sapiens, Ca9-22;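 note: growth inhibition of Ca9-22 cells, read out with a cell viability assay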
Description: SANGER: Inhibition of human Ca9-22 cell growth in a cell viability assay.

D283 Med = assay: cells; type: functional, cell-based, Homo sapiens; details: Homo sapiens, D283 Med
Description: SANGER: Inhibition of human D-283MED cell growth in a cell viability assay.

Daudi = assay: cells; type: functional, cell-based; details: Homo sapiens;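 note: growth inhibition of Daudi cells, read out by a viability assay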
Description: SANGER: Inhibition of human Daudi cell growth in a cell viability assay.

DoTc2-4510 = assay: cells; type: functional, cell-based, Homo sapiens; details: Homo sapiens, DoTc2-4510
EB-3 = assay: cells; type: functional, cell-based; details: Homo sapiens;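 note: human EB-3 cells, growth inhibition read out via a cell viability assay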
Description: SANGER: Inhibition of human EB-3 cell growth in a cell viability assay.

ECC4 = assay: cells; type: functional, cell-based; details: Homo sapiens;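 note: growth inhibition of ECC4 cells, read out with a cell viability assay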
Description: SANGER: Inhibition of human ECC4 cell growth in a cell viability assay.

G-361 = assay: cells; type: functional, cell-based, Homo sapiens; details: Homo sapiens, G-361
G-402 = assay: cells; type: functional, cell-based, Homo sapiens; details: Homo sapiens, G-402
Description: SANGER: Inhibition of human G-402 cell growth in a cell viability assay.

GI-1 = assay: cells; type: functional, cell-based, Homo sapiens; details: Homo sapiens, GI-1;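 note: growth inhibition of human GI-1 cells, measured with a cell viability readout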
Description: SANGER: Inhibition of human GI-1 cell growth in a cell viability assay.

IMR-5 = assay: cells; type: functional, cell-based; details: Homo sapiens;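 note: growth inhibition of human IMR-5 cells, read out with a cell viability assay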
Description: SANGER: Inhibition of human IMR-5 cell growth in a cell viability assay.

K052 = assay: cells; type: functional, cell-based; details: Homo sapiens;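 note: Read-out from a cell viability assay, IC50 reflecting suppression of K052 cell growth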
Description: SANGER: Inhibition of human K052 cell growth in a cell viability assay.

KALS-1 = assay: cells; type: functional, cell-based, Homo sapiens; details: Homo sapiens, KALS-1;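 note: growth inhibition of KALS-1 cells, determined with a cell viability assay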
KARPAS-422 = assay: cells; type: functional, cell-based; details: Homo sapiens
Description: SANGER: Inhibition of human KARPAS-422 cell growth in a cell viability assay.

KMS-12-PE = assay: cells; type: functional, cell-based; details: Homo sapiens;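 note: growth inhibition of human KMS-12-PE cells, measured with a cell viability assay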
Description: SANGER: Inhibition of human KMS-12-PE cell growth in a cell viability assay.

KU-19-19 = assay: cells; type: functional, cell-based, Homo sapiens; details: Homo sapiens, KU-19-19
Description: SANGER: Inhibition of human KU-19-19 cell growth in a cell viability assay.

KURAMOCHI = assay: cells; type: functional, cell-based; details: Homo sapiens;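 note: growth inhibition of KURAMOCHI cells, read out with a cell viability assay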
Description: SANGER: Inhibition of human KURAMOCHI cell growth in a cell viability assay.

L-540 = assay: cells; type: functional, cell-based; details: Homo sapiens;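 note: growth inhibition of the human L-540 cell line, read out with a viability assay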
Description: SANGER: Inhibition of human L-540 cell growth in a cell viability assay.

LB647-SCLC = assay: cells; type: functional, cell-based; details: Homo sapiens;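 note: cell growth inhibition, read out by a viability assay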
Description: SANGER: Inhibition of human LB647-SCLC cell growth in a cell viability assay.

Lu-65 = assay: cells; type: functional, cell-based; details: Homo sapiens;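 note: growth inhibition of Lu-65 cancer cells, read out by a cell viability assay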
Description: SANGER: Inhibition of human LU-65 cell growth in a cell viability assay.

MRK-nu-1 = assay: cells; type: functional, cell-based; details: Homo sapiens;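 note: cell viability assay measuring growth suppression of human MRK-nu-1 cells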
Description: SANGER: Inhibition of human MRK-nu-1 cell growth in a cell viability assay.

NB12 = assay: cells; type: functional, cell-based, Homo sapiens; details: Homo sapiens, NB12;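 note: growth inhibition of human NB12 cells, read out by a cell viability assay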
Description: SANGER: Inhibition of human NB12 cell growth in a cell viability assay.

NCI-H1299 = assay: cells; type: functional, cell-based, Homo sapiens; details: Homo sapiens, NCI-H1299;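 note: growth inhibition of human NCI-H1299 cells, read out by a cell viability assay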
Description: SANGER: Inhibition of human NCI-H1299 cell growth in a cell viability assay.

NCI-H1436 = assay: cells; type: functional, cell-based; details: Homo sapiens;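 note: growth suppression of human NCI-H1436 cells, determined with a cell viability readout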
Description: SANGER: Inhibition of human NCI-H1436 cell growth in a cell viability assay.

NCI-H1694 = assay: cells; type: functional, cell-based; details: Homo sapiens;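 note: cell viability assay measuring inhibition of growth in human NCI-H1694 cells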
Description: SANGER: Inhibition of human NCI-H1694 cell growth in a cell viability assay.

NCI-H1703 = assay: cells; type: functional, cell-based, Homo sapiens; details: Homo sapiens, NCI-H1703;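 note: growth inhibition of NCI-H1703 cells, read out via a cell viability assay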
Description: SANGER: Inhibition of human NCI-H1703 cell growth in a cell viability assay.

NCI-H1963 = assay: cells; type: functional, cell-based; details: Homo sapiens
Description: SANGER: Inhibition of human NCI-H1963 cell growth in a cell viability assay.

NCI-H2009 = assay: cells; type: functional, cell-based, Homo sapiens; details: Homo sapiens, NCI-H2009;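 note: cell viability assay measuring inhibition of NCI-H2009 cell growth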
Description: SANGER: Inhibition of human NCI-H2009 cell growth in a cell viability assay.

NCI-H2081 = assay: cells; type: functional, cell-based; details: Homo sapiens;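 note: growth inhibition of human NCI-H2081 cells, read out with a cell viability assay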
Description: SANGER: Inhibition of human NCI-H2081 cell growth in a cell viability assay.

NCI-H2141 = assay: cells; type: functional, cell-based; details: Homo sapiens;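 note: growth inhibition of human NCI-H2141 cells, read out with a cell viability assay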
Description: SANGER: Inhibition of human NCI-H2141 cell growth in a cell viability assay.

NCI-H345 = assay: cells; type: functional, cell-based; details: Homo sapiens;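 note: growth inhibition of NCI-H345 cells measured with a cell viability assay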
Description: SANGER: Inhibition of human NCI-H345 cell growth in a cell viability assay.

NCI-H524 = assay: cells; type: functional, cell-based; details: Homo sapiens;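 note: growth inhibition of human NCI-H524 cells, read out through a cell viability assay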
Description: SANGER: Inhibition of human NCI-H524 cell growth in a cell viability assay.

NCI-H889 = assay: cells; type: functional, cell-based; details: Homo sapiens;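 note: cell growth inhibition of the cell line, read out with a viability assay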
Description: SANGER: Inhibition of human NCI-H889 cell growth in a cell viability assay.

OAW-28 = assay: cells; type: functional, cell-based, Homo sapiens; details: Homo sapiens, OAW-28;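 note: growth inhibition of OAW-28 cells, read out with a cell viability assay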
Description: SANGER: Inhibition of human OAW-28 cell growth in a cell viability assay.

OAW-42 = assay: cells; type: functional, cell-based, Homo sapiens; details: Homo sapiens, OAW-42;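 note: growth inhibition of OAW-42 cells, read out with a cell viability assay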
Description: SANGER: Inhibition of human OAW-42 cell growth in a cell viability assay.

PANC-08-13 = assay: cells; type: functional, cell-based, Homo sapiens; details: Homo sapiens, PANC-08-13
Description: SANGER: Inhibition of human PANC-08-13 cell growth in a cell viability assay.

REH = assay: cells; type: functional, cell-based; details: Homo sapiens;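 note: growth inhibition of REH cells determined with a cell viability read-out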
Description: SANGER: Inhibition of human REH cell growth in a cell viability assay.

Raji = assay: cells; type: functional, cell-based; details: Homo sapiens;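 note: cell viability assay measuring inhibition of Raji cell growth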
Description: SANGER: Inhibition of human Raji cell growth in a cell viability assay.

SAS = assay: cells; type: functional, cell-based, Homo sapiens; details: Homo sapiens, SAS;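 note: growth inhibition of SAS cells, read out with a cell viability assay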
SCC-3 = assay: cells; type: functional, cell-based; details: Homo sapiens;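 note: cell viability assay measuring inhibition of SCC-3 cell growth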
Description: SANGER: Inhibition of human SCC-3 cell growth in a cell viability assay.

SNU-C1 = assay: cells; type: functional, cell-based; details: Homo sapiens;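 note: growth inhibition of SNU-C1 human cells, read out by a cell viability assay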
Description: SANGER: Inhibition of human SNU-C1 cell growth in a cell viability assay.

SR = assay: cells; type: functional, cell-based; details: Homo sapiens
Description: SANGER: Inhibition of human SR cell growth in a cell viability assay.

ST486 = assay: SANGER: Inhibition of human ST486 cell growth in a cell viability assay.; type: functional, cell-based
SUP-T1 = assay: cells; type: functional, cell-based; details: Homo sapiens;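 note: growth inhibition of human SUP-T1 cells, read out as cell viability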
Description: SANGER: Inhibition of human SUP-T1 cell growth in a cell viability assay.

SW1990 = assay: cells; type: functional, cell-based, Homo sapiens; details: Homo sapiens, SW1990
Description: SANGER: Inhibition of human SW1990 cell growth in a cell viability assay.

A4-Fuk = assay: cells; type: functional, cell-based; details: Homo sapiens;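 note: growth inhibition of A4-Fuk cells, read out by a cell viability assay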
Description: SANGER: Inhibition of human A4-Fuk cell growth in a cell viability assay.

ARH-77 = assay: cells; type: functional, cell-based; details: Homo sapiens;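 note: growth inhibition of ARH-77 cells, read out by a cell viability assay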
Description: SANGER: Inhibition of human ARH-77 cell growth in a cell viability assay.

BC1 cell line = assay: SANGER: Inhibition of human BC-1 cell growth in a cell viability assay.; type: functional, cell-based
BOKU = assay: cells; type: functional, cell-based; details: Homo sapiens;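 note: growth inhibition of the human BOKU cell line, read out by a cell viability assay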
Description: SANGER: Inhibition of human BOKU cell growth in a cell viability assay.

CA46 = assay: cells; type: functional, cell-based; details: Homo sapiens;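 note: growth inhibition of human CA46 cells, read out by a cell viability assay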
Description: SANGER: Inhibition of human CA46 cell growth in a cell viability assay.

CAKI-1 = assay: cells; type: functional, cell-based, Homo sapiens; details: Homo sapiens, CAKI-1;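 note: growth inhibition of CAKI-1 cells, measured by a cell viability assay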
Description: SANGER: Inhibition of human CAKI-1 cell growth in a cell viability assay.

TE-15 = assay: cells; type: functional, cell-based; details: Homo sapiens;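 note: cell viability readout of growth inhibition in TE-15 cells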
Description: SANGER: Inhibition of human TE-15 cell growth in a cell viability assay.

Kasumi 1 = assay: cells; type: functional, cell-based; details: Homo sapiens;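 note: growth inhibition of human Kasumi-1 cells, read out by a cell viability assay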
Description: SANGER: Inhibition of human KASUMI-1 cell growth in a cell viability assay.

NB17 = assay: cells; type: functional, cell-based; details: Homo sapiens;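 note: growth inhibition of NB17 cells, read out with a cell viability assay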
Description: SANGER: Inhibition of human NB17 cell growth in a cell viability assay.

Cc1ccc(Nc2nccc(N(C)c3ccc4c(C)n(C)nc4c3)n2)cc1S(N)(=O)=O [PAZOPANIB]
IC50 (Ca9-22): > 8000 nM
IC50 (D283 Med): > 8000 nM
IC50 (Daudi): 3660 nM
IC50 (DoTc2-4510): > 8000 nM
IC50 (EB-3): > 8000 nM
IC50 (ECC4): > 8000 nM
IC50 (G-361): 3040 nM
IC50 (G-402): 532 nM
IC50 (GI-1): 2230 nM
IC50 (IMR-5): > 8000 nM
IC50 (K052): > 8000 nM
IC50 (KALS-1): > 8000 nM
IC50 (KARPAS-422): > 8000 nM
IC50 (KMS-12-PE): > 8000 nM
IC50 (KU-19-19): > 8000 nM
IC50 (KURAMOCHI): > 8000 nM
IC50 (L-540): > 8000 nM
IC50 (LB647-SCLC): > 8000 nM
IC50 (Lu-65): > 8000 nM
IC50 (MRK-nu-1): > 8000 nM
IC50 (NB12): > 8000 nM
IC50 (NCI-H1299): > 8000 nM
IC50 (NCI-H1436): > 8000 nM
IC50 (NCI-H1694): > 8000 nM
IC50 (NCI-H1703): > 8000 nM
IC50 (NCI-H1963): > 8000 nM
IC50 (NCI-H2009): > 8000 nM
IC50 (NCI-H2081): > 8000 nM
IC50 (NCI-H2141): > 8000 nM
IC50 (NCI-H345): > 8000 nM
IC50 (NCI-H524): > 8000 nM
IC50 (NCI-H889): > 8000 nM
IC50 (OAW-28): > 8000 nM
IC50 (OAW-42): > 8000 nM
IC50 (PANC-08-13): > 8000 nM
IC50 (REH): > 8000 nM
IC50 (Raji): > 8000 nM
IC50 (SAS): > 8000 nM
IC50 (SCC-3): > 8000 nM
IC50 (SNU-C1): > 8000 nM
IC50 (SR): > 8000 nM
IC50 (ST486): > 8000 nM
IC50 (SUP-T1): > 8000 nM
IC50 (SW1990): > 8000 nM
IC50 (A4-Fuk): > 8000 nM
IC50 (ARH-77): > 8000 nM
IC50 (BC1 cell line): > 8000 nM
IC50 (BOKU): > 8000 nM
IC50 (CA46): > 8000 nM
IC50 (CAKI-1): > 8000 nM
IC50 (TE-15): 7170 nM

CO[C@H]1C[C@@H]2CC[C@@H](C)[C@@](O)(O2)C(=O)C(=O)N2CCCC[C@H]2C(=O)O[C@H]([C@H](C)C[C@@H]2CC[C@@H](O)[C@H](OC)C2)CC(=O)[C@H](C)/C=C(\C)[C@@H](O)[C@@H](OC)C(=O)[C@H](C)C[C@H](C)/C=C/C=C/C=C/1C [SIROLIMUS]
IC50 (D283 Med): > 100 nM
IC50 (Daudi): 0.434 nM
IC50 (EB-3): 52.7 nM
IC50 (ECC4): 44.8 nM
IC50 (GI-1): 70.4 nM
IC50 (IMR-5): > 100 nM
IC50 (K052): > 100 nM
IC50 (KALS-1): 6.56 nM
IC50 (KARPAS-422): > 100 nM
IC50 (Kasumi 1): > 100 nM
IC50 (KMS-12-PE): > 100 nM
IC50 (KURAMOCHI): > 100 nM
IC50 (L-540): 10.4 nM
IC50 (LB647-SCLC): > 100 nM
IC50 (Lu-65): > 100 nM
IC50 (MRK-nu-1): < 0.391 nM
IC50 (NB17): > 100 nM
IC50 (NCI-H1299): > 100 nM
IC50 (NCI-H1436): > 100 nM
IC50 (NCI-H1694): > 100 nM
IC50 (NCI-H1963): > 100 nM
IC50 (NCI-H2081): > 100 nM
IC50 (NCI-H2141): > 100 nM
IC50 (NCI-H345): > 100 nM
IC50 (NCI-H524): > 100 nM
IC50 (NCI-H889): > 100 nM
IC50 (REH): > 100 nM
IC50 (Raji): 89.7 nM
IC50 (SCC-3): > 100 nM
IC50 (SNU-C1): > 100 nM
IC50 (SR): 11.4 nM
IC50 (ST486): > 100 nM
IC50 (SUP-T1): > 100 nM
IC50 (A4-Fuk): 13.1 nM
IC50 (ARH-77): 52.8 nM
IC50 (BC1 cell line): 31.3 nM
IC50 (BOKU): > 100 nM
IC50 (CA46): > 100 nM
IC50 (TE-15): 1.36 nM

Cc1cc(Nc2cc(N3CCN(C)CC3)nc(Sc3ccc(NC(=O)C4CC4)cc3)n2)n[nH]1 [TOZASERTIB]
IC50 (D283 Med): > 2000 nM
IC50 (Daudi): > 2000 nM
IC50 (EB-3): > 2000 nM
IC50 (ECC4): > 2000 nM
IC50 (GI-1): > 2000 nM
IC50 (IMR-5): 355 nM
IC50 (K052): 195 nM
IC50 (KALS-1): > 2000 nM
IC50 (KARPAS-422): 373 nM
IC50 (Kasumi 1): > 2000 nM
IC50 (KMS-12-PE): > 2000 nM
IC50 (KURAMOCHI): 1790 nM
IC50 (L-540): > 2000 nM
IC50 (LB647-SCLC): 215 nM
IC50 (Lu-65): > 2000 nM
IC50 (MRK-nu-1): 381 nM
IC50 (NB17): > 2000 nM
IC50 (NCI-H1436): > 2000 nM
IC50 (NCI-H1694): > 2000 nM
IC50 (NCI-H1963): 1710 nM
IC50 (NCI-H2081): > 2000 nM
IC50 (NCI-H2141): > 2000 nM
IC50 (NCI-H345): > 2000 nM
IC50 (NCI-H524): 511 nM
IC50 (NCI-H889): > 2000 nM
IC50 (REH): > 2000 nM
IC50 (Raji): > 2000 nM
IC50 (SCC-3): > 2000 nM
IC50 (SNU-C1): > 2000 nM
IC50 (SR): 246 nM
IC50 (ST486): 231 nM
IC50 (SUP-T1): > 2000 nM
IC50 (A4-Fuk): 116 nM
IC50 (ARH-77): > 2000 nM
IC50 (BC1 cell line): > 2000 nM
IC50 (BOKU): > 2000 nM
IC50 (CA46): > 2000 nM
IC50 (TE-15): 851 nM
